The source of these data is patent US4605615A, “L-glutamic acid oxidase (H2 O2 -generating), its production and analytical method therefor” (priority 1982, dated 1986).

The structures appear in SMILES notation. Where two headings read alike, the source gives them in different places.

The test system of assay [1] is A7700 enzyme. The assay is described as follows: Effect of surface active agents and other substances on enzyme activity. The class given is biochemical, Streptomyces sp. A7700. As for the experimental part: (§1) The above mixture (3.0 ml) was introduced into a quartz cell at 37° C., to which was immediately added and mixed the enzyme solution (50 μl), in a constant temperature (37° C.) cell-holder of a spectrophotometer. Then the mixture was incubated for exactly 5 minutes after 2 minutes of mixing with the enzyme solution, and the variation of absorption (optical density ΔA545) at 545 nm is measured.
(§2) The activity of the enzyme is calculated by the following equation: [formula] 2.

Assay [2] has as its system A8063 enzyme. Described as above. The class given is biochemical, Streptomyces sp. A8063. As for the experimental part:
as §1, §2

In assay [3] the test system is A7700 enzyme. The assay is described as follows: Substrate specificity: relative activity on various substrates. The class given is biochemical, Streptomyces sp. A7700. As for the experimental part:
as §1
(§3) The activity of the enzyme is calculated by the following equation: [formula] 2. Substrate specificity:
(§4) The relative activities (%) of enzyme L-glutamic acid oxidases produced by Streptomyces sp. A7700 (hereinafter designated as A7700 enzyme) and by Streptomyces sp. A8063 (hereinafter designated as A8063 enzyme), respectively, on various substrates as compared with L-glutamic acid, are measured.

Assay [4] has as its system A8063 enzyme. The assay is described as above. The class given is biochemical, Streptomyces sp. A8063. As for the experimental part: as §1, §3, §4
For assay [5], the system named is A7700 enzyme. The assay is described as follows: Effect of metal ions on enzyme activity. The settings on record: metalic salt 1.0 mM. The format is biochemical, Streptomyces sp. A7700. The method, then: as §1, §3
(§5) The effect of metal ions is shown in Table 5, in which ions other than Cu^++ show no effect on the enzymes.

In assay [6] the test system is A8063 enzyme. The assay is described as follows: Effect of metal ions on enzyme activity. The format is biochemical, Streptomyces sp. A8063. The settings on record: metalic salt 1.0 mM. The method, then: as §1, §3, §5
Assay [7] relates to A8063 enzyme. Particulars: read-out: Km value; A8063 enzyme against L-glutamic acid.
The test system of assay [8] is A7700 enzyme. Particulars: read-out: Km value; A7700 enzyme against L-glutamic acid.

For `CCCCCCCCCCCCCCCC[N+](C)(C)C` [CTACl], the “Relative activity (%)” value in the assay on A7700 enzyme [1] (A7700, additive 0.1%) worked out at 98.6%; with A8063 enzyme [2] (A8063, additive 0.1%), 94.2%.

Regarding `CCN` [ethylamine], the “Relative activity (%) on substrate as compared with L-glutamic acid” value (from here on “Relative activity (%) on substrate”) with A7700 enzyme [3] and with A8063 enzyme [4] was 0% in each case.

As to `[Cl-].[Cl-].[Zn+2]` [ZnCl2], the results for the “Relative activity (%)” value in the assay on A7700 enzyme [5] and with A8063 enzyme [6] were 106.1% and 110.7%, respectively.

Consider `CC(C)[C@H](N)C(=O)O` [L-valine], for which the “Relative activity (%) on substrate” value in the assay on A7700 enzyme [3] and in the assay with A8063 enzyme [4] was 0% in each case.

As for `[Cl][Ni][Cl]` [NiCl2], the “Relative activity (%)” value was 101.8% with A7700 enzyme [5] and 102.3% with A8063 enzyme [6].

In the case of `Cc1cc2nc3c(=O)[nH]c(=O)nc-3n(C[C@H](O)[C@H](O)[C@H](O)COP(=O)(O)OP(=O)(O)OC[C@H]3O[C@@H](n4cnc5c(N)ncnc54)[C@H](O)[C@@H]3O)c2cc1C` [FAD], the “Relative activity (%)” value worked out at 100.7% in the assay on A7700 enzyme [1] (A7700, additive 0.01 mM) and 100.7% with A8063 enzyme [2] (A8063, additive 0.01 mM). Also, the “Effect of additive on enzyme activity (in words)” value (shortened to “Effect of additive”) with A7700 enzyme [1] (A7700 enzyme) and in the assay on A8063 enzyme [2] (A8063 enzyme) was “not affected” each time.

Turning to `C[C@H](N)C(=O)O` [L-alanine], the “Relative activity (%) on substrate” value in the assay with A7700 enzyme [3] and with A8063 enzyme [4] was 0% throughout.

With `Cc1cc2nc3c(=O)[nH]c(=O)nc-3n(C[C@H](O)[C@H](O)[C@H](O)COP(=O)(O)O)c2cc1C` [FMN], the “Relative activity (%)” value in the assay with A7700 enzyme [1] (A7700, additive 0.01 mM) is listed as 88.9%; with A8063 enzyme [2] (A8063, additive 0.01 mM), 97.1%. Moreover, the “Effect of additive” value in the assay with A7700 enzyme [1] (A7700 enzyme) and in the assay on A8063 enzyme [2] (A8063 enzyme) was “not affected” throughout.

As to `[Cl][Cu][Cl]` [CuCl2], the results for the “Relative activity (%)” value with A7700 enzyme [5] and in the assay with A8063 enzyme [6] were 50.3% and 62.1%, respectively.

Regarding `[Cl][Fe]([Cl])[Cl]` [FeCl3], the entries for the “Relative activity (%)” value in the assay on A7700 enzyme [5] and in the assay with A8063 enzyme [6] were 109.2% and 103.0%, respectively.

For `NCCCC[C@H](N)C(=O)O` [L-lysine], the “Relative activity (%) on substrate” value in the assay on A7700 enzyme [3] and with A8063 enzyme [4] was 0% in each case.

For the compound `NCc1ccccc1` [benzylamine], the “Relative activity (%) on substrate” value in the assay with A7700 enzyme [3] and in the assay with A8063 enzyme [4] was 0% throughout.

Regarding `O=C(O)c1cc[c]([Hg][Cl])cc1` [PCMB], the “Relative activity (%)” value in the assay with A7700 enzyme [1] (A7700, additive 0.002%) was 107.6%; with A8063 enzyme [2] (A8063, additive 0.002%) it was 98.2%.

For the compound `CCCN` [propylamine], the “Relative activity (%) on substrate” value in the assay on A7700 enzyme [3] and in the assay with A8063 enzyme [4] was 0% throughout.

As to `[Ba+2].[Cl-].[Cl-]` [BaCl2], the “Relative activity (%)” value in the assay on A7700 enzyme [5] was determined as 102.5%; in the assay on A8063 enzyme [6], 103.7%.

For `C[C@H](CCC(=O)O)[C@H]1CC[C@H]2[C@@H]3[C@H](O)C[C@@H]4C[C@H](O)CC[C@]4(C)[C@H]3C[C@H](O)[C@]12C` [sodium cholate], the “Relative activity (%)” value came to 104.2% in the assay with A7700 enzyme [1] (A7700, additive 0.1%) and 100.0% in the assay on A8063 enzyme [2] (A8063, additive 0.1%).

In the case of `N=C(N)NCCC[C@H](N)C(=O)O` [L-arginine], the “Relative activity (%) on substrate” value in the assay on A7700 enzyme [3] and in the assay on A8063 enzyme [4] was 0% throughout.

`N[C@@H](CCC(=O)O)C(=O)O` [L-glutamic acid]: the “Activity of enzyme on substrate (in words)” value with A7700 enzyme [3] and in the assay with A8063 enzyme [4] was “specific activity” throughout. Besides, the “Relative activity (%) on substrate” value with A7700 enzyme [3] and with A8063 enzyme [4] was 100% each time. Also, the Km in the assay on A8063 enzyme [7] is about 1100 µM; in the assay on A7700 enzyme [8], about 560 µM.

For `N[C@@H](Cc1ccc(O)cc1)C(=O)O` [L-tyrosine], the “Relative activity (%) on substrate” value in the assay on A7700 enzyme [3] and in the assay on A8063 enzyme [4] was 0% throughout.

Regarding `CN` [methylamine], the “Relative activity (%) on substrate” value in the assay with A7700 enzyme [3] and with A8063 enzyme [4] was 0% each time.

`CCCCN` [butylamine]: the “Relative activity (%) on substrate” value in the assay with A7700 enzyme [3] and in the assay on A8063 enzyme [4] was 0% in each case.

Consider `[Ca+2].[Cl-].[Cl-]` [CaCl2], for which the entries for the “Relative activity (%)” value in the assay on A7700 enzyme [5] and in the assay on A8063 enzyme [6] were 98.8% and 103.0%, respectively.

Turning to `[Cl][Mn][Cl]` [MnCl2], the “Relative activity (%)” value is on record as 108.6% in the assay on A7700 enzyme [5] and 105.7% in the assay on A8063 enzyme [6].

On to `N[C@@H](CO)C(=O)O` [L-serine], for which the “Relative activity (%) on substrate” value in the assay with A7700 enzyme [3] and in the assay on A8063 enzyme [4] was 0% each time.

Turning to `O=C(O)CN(CCN(CC(=O)O)CC(=O)O)CC(=O)O` [EDTA], in the assay with A7700 enzyme [1], the “Effect of additive” value is given as “lack of effect” and the “Relative activity (%)” value was found to be 93.8%. Also, in the assay with A8063 enzyme [2], the “Effect of additive” value is “lack of effect” and the “Relative activity (%)” value turned out to be 100.7%.

Regarding `[N-]=[N+]=[N-].[Na+]` [NaN3], the “Relative activity (%)” value with A7700 enzyme [1] (A7700, additive 10 mM) was 101.4%; with A8063 enzyme [2] (A8063, additive 10 mM), 102.6%. The “Effect of additive” value in the assay with A7700 enzyme [1] (A7700 enzyme) and in the assay with A8063 enzyme [2] (A8063 enzyme) was “not inhibited” each time.

Take `CC[C@H](C)[C@H](N)C(=O)O` [L-isoleucine]: the “Relative activity (%) on substrate” value in the assay with A7700 enzyme [3] and in the assay with A8063 enzyme [4] was 0% throughout.

Consider `[Cl-].[Cl-].[Mg+2]` [MgCl2], for which the “Relative activity (%)” value in the assay on A7700 enzyme [5] is 102.5%; with A8063 enzyme [6], 103.4%.

Take `[Cl-].[Cl-].[Co+2]` [CoCl2]: the “Relative activity (%)” value in the assay with A7700 enzyme [5] is listed as 99.4%; in the assay with A8063 enzyme [6], 98.0%.

In the case of `NO` [hydroxylamine], the “Relative activity (%) on substrate” value in the assay on A7700 enzyme [3] and with A8063 enzyme [4] was 0% throughout.

On to `CSCC[C@H](N)C(=O)O` [L-methionine], for which the “Relative activity (%) on substrate” value in the assay on A7700 enzyme [3] and with A8063 enzyme [4] was 0% throughout.

For `N[C@@H](Cc1c[nH]cn1)C(=O)O` [L-histidine], the “Relative activity (%) on substrate” value with A7700 enzyme [3] and in the assay on A8063 enzyme [4] was 0% in each case.

For `CCCCCCCCCCCCOS(=O)(=O)O` [SDS], the “Relative activity (%)” value with A7700 enzyme [1] (A7700, additive 0.1%) was found to be 106.3%; with A8063 enzyme [2] (A8063, additive 0.1%), 93.1%.

Regarding `NCCc1ccc(O)cc1` [tyramine], the “Relative activity (%) on substrate” value in the assay on A7700 enzyme [3] and in the assay on A8063 enzyme [4] was 0% throughout.

With `N[C@H](CCC(=O)O)C(=O)O` [D-glutamic acid], the “Relative activity (%) on substrate” value in the assay with A7700 enzyme [3] and in the assay on A8063 enzyme [4] was 0% in each case.

In the case of `N[C@@H](Cc1ccccc1)C(=O)O` [L-phenylalanine], the “Relative activity (%) on substrate” value with A7700 enzyme [3] and in the assay on A8063 enzyme [4] was 0% in each case.

As to `C[C@@H](O)[C@H](N)C(=O)O` [L-threonine], the “Relative activity (%) on substrate” value in the assay on A7700 enzyme [3] and in the assay with A8063 enzyme [4] was 0% each time.

The Km is the substrate concentration at which the rate is half of its maximum.
